“And” between values parts separate entries of the source, which are not always exact repeats. Identical values can stand only once. Like-named read-outs stand apart in the source and are kept apart here.

Series [1] concerns the target T1, PfDHODH (Plasmodium falciparum, UniProt Q08210).
T1 sequence (Q08210 24-569): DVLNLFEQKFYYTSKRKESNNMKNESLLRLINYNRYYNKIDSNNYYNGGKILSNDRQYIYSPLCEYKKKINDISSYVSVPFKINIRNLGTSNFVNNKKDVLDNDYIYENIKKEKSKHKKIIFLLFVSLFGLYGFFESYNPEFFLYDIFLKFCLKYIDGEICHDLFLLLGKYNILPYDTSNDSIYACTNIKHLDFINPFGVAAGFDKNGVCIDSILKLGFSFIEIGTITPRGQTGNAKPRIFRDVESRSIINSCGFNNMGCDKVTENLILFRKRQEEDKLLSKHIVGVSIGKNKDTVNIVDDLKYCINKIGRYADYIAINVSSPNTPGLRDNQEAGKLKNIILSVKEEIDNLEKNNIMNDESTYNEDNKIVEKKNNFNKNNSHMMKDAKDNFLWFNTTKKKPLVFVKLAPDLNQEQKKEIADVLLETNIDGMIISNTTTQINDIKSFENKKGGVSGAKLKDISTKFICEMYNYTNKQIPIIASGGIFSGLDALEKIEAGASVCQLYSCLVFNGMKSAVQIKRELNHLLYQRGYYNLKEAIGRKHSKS
Nature of the series: biochemical. Further details: species or system P. falciparum.

The test system of series [2] is Pf3D7 cells. Nature of the series: P. falciparum 3D7 growth inhibition. The class given is cell-based.
A short description of series [3]: Microsome binding. The class given is in vitro ADME, human.
Series [4] in a line: Albumax medium binding. Format: in vitro ADME.
A short description of series [5]: Plasma protein binding. Format: in vitro ADME. The conditions noted are these: mouse plasma.
Series [6] deals with KV1.5 K+ (Homo sapiens, UniProt P22460). Nature of the series: Potassium channel IonWorks patch clamp electrophysiology. Format: cell-based. (In general: The patch-clamp technique gives a direct electrical read-out from membranes.)
Series [7] in a line: Plasma protein binding. The conditions noted are these: human plasma. Format: in vitro ADME.
The nature of series [8]: Plasma protein binding. The class given is in vitro ADME. The conditions noted are these: rat plasma.
Series [9] can be described thus: Blood exposure in P. falciparum-infected SCID mice. The class given is in vivo. The conditions noted are these: NOD-scidIL2Rγnull, mouse, whole blood, po.
The target in series [10] is hERG (Homo sapiens, UniProt Q12809). Description: hERG IonWorks patch clamp electrophysiology. Format: cell-based.
Series [11] is described as follows: in vivo. The settings on record: male, Swiss outbred, mouse, plasma, iv.
Series [12] concerns R10C1B. Description: microbe, parasite or virus in culture. The settings on record: Plasmodium falciparum, read-out: EC50 R10C1B.
The conditions of series [13]: human plasma; cited from earlier work.
For series [14] the following is noted: mouse liver microsomes; cited from earlier work.
For series [15], the system named is R2B. Description: microbe, parasite or virus in culture. The conditions noted are these: Plasmodium falciparum, read-out: EC50 R2B.
Series [16] has as its system R1BC1A. Description: microbe, parasite or virus in culture. The settings on record: Plasmodium falciparum, read-out: EC50 R1BC1A.
For series [17] the following is noted: cited from earlier work.
For series [18] the following is noted: cited from earlier work. This is another data set of the same source.
The conditions of series [19]: cited from earlier work. The source holds these as a separate data set.
The conditions of series [20]: rat liver microsomes; cited from earlier work. A general note: Microsomes from liver hold many membrane-bound enzymes, among them those of drug oxidation.
For series [21] the following is noted: rat plasma; cited from earlier work.
The conditions of series [22]: human liver microsomes; cited from earlier work.
The test system of series [23] is P. falciparum Dd2. The conditions noted are these: read-out: EC50 Dd2 (parental); cited from earlier work.
For series [24] the following is noted: mouse plasma; cited from earlier work.
The conditions of series [25]: cited from earlier work. This is another data set of the same source.
Series [26] in a line: In vitro metabolism, mouse liver microsomes.
Setting [27] is: Plasmodium falciparum, read-out: EC50 Pf3D7 cells.
Where [28] appears, read: Plasmodium falciparum, read-out: potency on Pf3D7 parasites.

hERG, sequence (Q12809 whole entry): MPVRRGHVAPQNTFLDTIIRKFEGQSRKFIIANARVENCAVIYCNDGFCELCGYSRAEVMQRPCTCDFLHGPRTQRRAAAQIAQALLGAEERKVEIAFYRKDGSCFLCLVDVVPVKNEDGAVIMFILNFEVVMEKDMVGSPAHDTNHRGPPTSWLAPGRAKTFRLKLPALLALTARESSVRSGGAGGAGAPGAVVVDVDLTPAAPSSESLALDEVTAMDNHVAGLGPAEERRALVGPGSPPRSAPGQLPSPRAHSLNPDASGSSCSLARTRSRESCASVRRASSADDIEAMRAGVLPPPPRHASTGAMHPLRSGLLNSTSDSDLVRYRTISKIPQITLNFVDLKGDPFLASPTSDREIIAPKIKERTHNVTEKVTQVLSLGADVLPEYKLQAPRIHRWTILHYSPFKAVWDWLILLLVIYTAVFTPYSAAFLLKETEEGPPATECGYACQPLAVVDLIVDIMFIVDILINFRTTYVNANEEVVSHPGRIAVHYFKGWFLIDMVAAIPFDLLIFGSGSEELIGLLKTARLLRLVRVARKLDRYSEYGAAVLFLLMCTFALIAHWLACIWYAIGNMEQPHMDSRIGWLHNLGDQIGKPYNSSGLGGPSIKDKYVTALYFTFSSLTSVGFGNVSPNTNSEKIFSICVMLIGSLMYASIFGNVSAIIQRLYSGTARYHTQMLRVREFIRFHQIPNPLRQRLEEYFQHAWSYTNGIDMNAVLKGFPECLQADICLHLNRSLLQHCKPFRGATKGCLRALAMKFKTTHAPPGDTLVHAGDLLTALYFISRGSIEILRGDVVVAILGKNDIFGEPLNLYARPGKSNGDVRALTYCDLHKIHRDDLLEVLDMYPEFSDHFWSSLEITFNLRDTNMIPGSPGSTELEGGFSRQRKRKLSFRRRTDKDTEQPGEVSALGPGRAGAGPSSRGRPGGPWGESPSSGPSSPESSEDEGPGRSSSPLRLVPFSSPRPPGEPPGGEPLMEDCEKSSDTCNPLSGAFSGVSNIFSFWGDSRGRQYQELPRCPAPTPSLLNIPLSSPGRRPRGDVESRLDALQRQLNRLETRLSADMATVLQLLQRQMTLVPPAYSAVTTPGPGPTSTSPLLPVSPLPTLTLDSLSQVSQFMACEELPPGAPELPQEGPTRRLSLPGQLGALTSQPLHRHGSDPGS
KV1.5 K+, sequence (P22460 whole entry): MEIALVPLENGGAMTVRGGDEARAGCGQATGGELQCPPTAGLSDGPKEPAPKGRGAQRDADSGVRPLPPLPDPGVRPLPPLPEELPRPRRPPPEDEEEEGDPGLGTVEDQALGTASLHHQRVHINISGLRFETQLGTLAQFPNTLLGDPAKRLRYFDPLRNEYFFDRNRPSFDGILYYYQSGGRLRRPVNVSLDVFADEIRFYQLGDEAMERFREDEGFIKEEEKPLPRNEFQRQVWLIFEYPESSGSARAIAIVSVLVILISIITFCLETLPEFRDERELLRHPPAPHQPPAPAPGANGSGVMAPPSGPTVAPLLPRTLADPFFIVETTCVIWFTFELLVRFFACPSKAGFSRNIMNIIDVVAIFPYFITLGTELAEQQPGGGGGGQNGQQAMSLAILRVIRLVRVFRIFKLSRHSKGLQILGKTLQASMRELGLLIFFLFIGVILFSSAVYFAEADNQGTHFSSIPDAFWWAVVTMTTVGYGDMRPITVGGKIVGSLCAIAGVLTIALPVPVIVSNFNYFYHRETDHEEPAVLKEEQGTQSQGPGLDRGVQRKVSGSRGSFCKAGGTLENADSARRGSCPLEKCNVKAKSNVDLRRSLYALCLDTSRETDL

By IC50 is commonly meant the concentration that gives 50% inhibition. Lower therefore signals higher potency. With `Cc1[nH]c(C(=O)NC2CCC2)c(C)c1Cc1ccc(C(F)(F)F)nc1` [Compound 19, N-Cyclobutyl-3,5-dimethyl-4-((6-(trifluoromethyl)pyridin-3-yl)methyl)-1H-pyrrole-2-carboxamide], in [1] (IC50 PfDHODH), the IC50 was 72 nM and 42 nM.
Turning to `CCOC(=O)c1[nH]c(C)c(Cc2ccc(OCC)cc2)c1C` [Compound 3, Ethyl 4-(4-ethoxybenzyl)-3,5-dimethyl-1H-pyrrole-2-carboxylate], the EC50 was 230 nM in series [2] (setting [27]) and 250 nM in [2] (read-out: EC50 Pf3D7 cells).
On to `Cc1[nH]c(C(=O)NC2CC2)c(C)c1Cc1ccc(C(F)(F)F)nc1` [Compound 18, N-Cyclopropyl-3,5-dimethyl-4-((6-(trifluoromethyl)pyridin-3-yl)methyl)-1H-pyrrole-2-carboxamide], for which the EC50 in series [2] (setting [28]) was < 50 nM.
Take `CCOC(=O)c1[nH]c(C)c(Cc2ccc(C(F)(F)F)cc2)c1C` [Compound 4, Ethyl 3,5-dimethyl-4-(4-(trifluoromethyl)benzyl)-1H-pyrrole-2-carboxylate]: the values for the EC50 in series [2] (setting [27]) and in series [2] (read-out: EC50 Pf3D7 cells) were 61 nM and 71 nM, respectively.
One may read the AUC(0-t) as exposure summed from dosing to a finite time, without extrapolation to infinity. A high value points to more exposure. The Cmax is the peak of the concentration-time curve. The term clearance denotes the volume of plasma or blood freed of the substance per unit of time. Read a low clearance as a low capacity for elimination. `Cc1c(Cc2ccc(C(F)(F)F)nc2)c[nH]c1C(=O)NC1CC1` [Compound 37]: the Microsome binding in [3] was 29.9 % bound. The Albumax binding in [4] worked out at 51.8 % bound. Further, the “M plasma protein binding” value in [5] was 88 % bound and 88.9 % bound. In addition, the “Human Ion Channel activity KV1.5 K+” value in series [6] is >11 µM. In addition, the “H plasma protein binding” value in [7] was 90 % bound. For the same compound, in series [8], the “R plasma protein binding” value is given as 88.2 % bound. In addition, the results for the AUC(0-t) in series [9] (10 mg/kg) and in [9] (50 mg/kg) were 680 ng·h/mL and 8600 ng·h/mL, respectively. Also, in series [9] (50 mg/kg), the highest level (Cmax) was 2520 ng/mL. In series [10], the “Human Ion Channel activity hERG” value is >33 µM. For the same compound, the clearance at 24 h in series [11] came to 26.1 mL/min/kg.
On to `Cc1c(Cc2ccc(C(F)(F)F)cc2F)c[nH]c1C(=O)NC1CC1` [Compound 60, N-Cyclopropyl-4-(2-fluoro-4-(trifluoromethyl)benzyl)-3-methyl-1H-pyrrole-2-carboxamide], for which the EC50 in series [2] (setting [28]) was < 30 nM.
On to `Cc1[nH]c(C(=O)NC2CCC2)c(C)c1Cc1ccc(C(F)(F)F)cn1` [Compound 25, N-Cyclobutyl-3,5-dimethyl-4-((5-(trifluoromethyl)pyridin-2-yl)methyl)-1H-pyrrole-2-carboxamide], for which the results for the EC50 in series [2] (setting [27]) and in series [2] (read-out: EC50 Pf3D7 cells) were 470 nM and 680 nM, respectively.
Turning to `Cc1c(Cc2ccc(C(F)(F)F)nc2)c[nH]c1C(=O)NCC(F)(F)F` [Compound 39, 3-Methyl-N-(2,2,2-trifluoroethyl)-4-((6-(trifluoromethyl)pyridin-3-yl)methyl)-1H-pyrrole-2-carboxamide], the EC50 was 44 nM in series [2] (setting [27]) and 59 nM in [2] (read-out: EC50 Pf3D7 cells).
By microsomal CLint is commonly meant the capacity of the preparation to metabolise the compound, expressed as a volume cleared per time. A high value points to rapid turnover. Consider `Cc1cc(Nc2ccc(S(F)(F)(F)(F)F)cc2)n2nc(C(C)(F)F)nc2n1` [Compound 1], for which the EC50 in series [12] is 120 nM; in [15], 74 nM; in [16], 80 nM; in [23], 4.6 nM. Moreover, the “H plasma protein binding” value in series [13] is reported as 99.9 % bound. In addition, the “M CLint” value in [14] is on record as <7 / <7 / <7 μL/min/mg. In addition, the Albumax binding in [17] is 83.1 % bound. For the same compound, in series [18], the “Solubility FeSSIF (pH 5.8)” value is 27.6 μg/mL. Further, the Microsome binding in series [19] is given as 71.7 % bound. Further, the “R CLint” value in series [20] was <7 / <7 / <7 μL/min/mg. For the same compound, the “R plasma protein binding” value in [21] is reported as 97.0 % bound. Further, the “H CLint” value in [22] was <7 / <7 / <7 μL/min/mg. For the same compound, the “M plasma protein binding” value in [24] is listed as 99.7 % bound. Moreover, in [25], the human half-life was ~ 100 hours. Moreover, the microsomal CLint at 1 μM in [26] is 8 µL/min/mg.
For the compound `Cc1c(Cc2ccc(C(F)(F)F)cc2Cl)c[nH]c1C(=O)NC1CC1` [Compound 66, 4-(2-chloro-4-(trifluoromethyl)benzyl)-N-cyclopropyl-3-methyl-1H-pyrrole-2-carboxamide], the EC50 in series [2] (setting [28]) was < 30 nM.
On to `CCNC(=O)c1[nH]c(C)c(Cc2ccc(C(F)(F)F)nc2)c1C` [Compound 16, N-Ethyl-3,5-dimethyl-4-((6-(trifluoromethyl)pyridin-3-yl)methyl)-1H-pyrrole-2-carboxamide], for which, in [1] (potency on PfDHODH), the IC50 was < 50 nM. Also, the EC50 in series [2] (setting [28]) was < 50 nM.

The values above are taken from PMC7394244 (Journal of medicinal chemistry, 2020).
